# Numbers after ± are expanded uncertainties.
# Columns and labels:
# [1] = xn = mol fraction of the nth substance listed; settings: 101 kPa, Liquid; for mass density: Pycnometric method; for speed of sound: Pulse-echo method
# [2] = 101 kPa, Liquid; for mass density: Pycnometric method; for speed of sound: Pulse-echo method
# [3] = refractive index (Na D-line) (dimensionless); settings: 298.15 K; 101.33 kPa; Liquid; Standard Abbe refractometry
# [4] = molar heat capacity at constant pressure; settings: 101.33 kPa, Liquid, Small sample (50 mg) DSC
structure (smiles),measurement,setting,value
"CCC(O)CO (stereo not drawn) [1,2-butanediol] + CCCCO",mass density,"[1]; 293.15 K, x1 = 0.05027",819.25 ± 0.3 kg/m3
same,mass density,"[1]; 293.15 K, x1 = 0.1001",828.73 ± 0.31 kg/m3
same,mass density,"[1]; 293.15 K, x1 = 0.1501",838.28 ± 0.32 kg/m3
same,mass density,"[1]; 293.15 K, x1 = 0.3",867.03 ± 0.35 kg/m3
same,mass density,"[1]; 293.15 K, x1 = 0.4004",886.32 ± 0.37 kg/m3
same,mass density,"[1]; 293.15 K, x1 = 0.4994",905.4 ± 0.4 kg/m3
same,mass density,"[1]; 293.15 K, x1 = 0.6002",924.85 ± 0.42 kg/m3
same,mass density,"[1]; 293.15 K, x1 = 0.7001",944.16 ± 0.46 kg/m3
same,mass density,"[1]; 293.15 K, x1 = 0.85",973.21 ± 0.51 kg/m3
same,mass density,"[1]; 293.15 K, x1 = 0.8998",982.93 ± 0.53 kg/m3
same,mass density,"[1]; 293.15 K, x1 = 0.9498",992.62 ± 0.55 kg/m3
same,mass density,"[1]; 293.15 K, x1 = 1",1002.32 ± 0.57 kg/m3
same,speed of sound,"[1]; 298.15 K, x1 = 0.05027",1248.1 ± 1.4 m/s
same,speed of sound,"[1]; 298.15 K, x1 = 0.1001",1256.3 ± 1.4 m/s
same,speed of sound,"[1]; 298.15 K, x1 = 0.1501",1264.1 ± 1.4 m/s
same,speed of sound,"[1]; 298.15 K, x1 = 0.3",1289.6 ± 1.4 m/s
same,speed of sound,"[1]; 298.15 K, x1 = 0.4004",1307.8 ± 1.4 m/s
same,speed of sound,"[1]; 298.15 K, x1 = 0.4994",1327.2 ± 1.5 m/s
same,speed of sound,"[1]; 298.15 K, x1 = 0.6002",1348.3 ± 1.5 m/s
same,speed of sound,"[1]; 298.15 K, x1 = 0.7001",1371.1 ± 1.5 m/s
same,speed of sound,"[1]; 298.15 K, x1 = 0.85",1408.2 ± 1.6 m/s
same,speed of sound,"[1]; 298.15 K, x1 = 0.8998",1421.8 ± 1.6 m/s
same,speed of sound,"[1]; 298.15 K, x1 = 0.9498",1435.5 ± 1.6 m/s
same,speed of sound,"[1]; 298.15 K, x1 = 1",1449.9 ± 1.6 m/s
same,mass density,"[1]; 298.15 K, x1 = 0.05027",815.37 ± 0.31 kg/m3
same,mass density,"[1]; 298.15 K, x1 = 0.1001",824.84 ± 0.32 kg/m3
same,mass density,"[1]; 298.15 K, x1 = 0.1501",834.4 ± 0.33 kg/m3
same,mass density,"[1]; 298.15 K, x1 = 0.3",863.1 ± 0.36 kg/m3
same,mass density,"[1]; 298.15 K, x1 = 0.4004",882.4 ± 0.38 kg/m3
same,mass density,"[1]; 298.15 K, x1 = 0.4994",901.47 ± 0.41 kg/m3
same,mass density,"[1]; 298.15 K, x1 = 0.6002",920.95 ± 0.44 kg/m3
same,mass density,"[1]; 298.15 K, x1 = 0.7001",940.28 ± 0.47 kg/m3
same,mass density,"[1]; 298.15 K, x1 = 0.85",969.42 ± 0.52 kg/m3
same,mass density,"[1]; 298.15 K, x1 = 0.8998",979.12 ± 0.54 kg/m3
same,mass density,"[1]; 298.15 K, x1 = 0.9498",988.87 ± 0.56 kg/m3
same,mass density,"[1]; 298.15 K, x1 = 1",998.59 ± 0.58 kg/m3
same,mass density,"[1]; 303.15 K, x1 = 0.05027",811.5 ± 0.32 kg/m3
same,mass density,"[1]; 303.15 K, x1 = 0.1001",820.98 ± 0.33 kg/m3
same,mass density,"[1]; 303.15 K, x1 = 0.1501",830.49 ± 0.34 kg/m3
same,mass density,"[1]; 303.15 K, x1 = 0.3",859.21 ± 0.37 kg/m3
same,mass density,"[1]; 303.15 K, x1 = 0.4004",878.47 ± 0.39 kg/m3
same,mass density,"[1]; 303.15 K, x1 = 0.4994",897.58 ± 0.42 kg/m3
same,mass density,"[1]; 303.15 K, x1 = 0.6002",917.07 ± 0.45 kg/m3
same,mass density,"[1]; 303.15 K, x1 = 0.7001",936.42 ± 0.48 kg/m3
same,mass density,"[1]; 303.15 K, x1 = 0.85",965.57 ± 0.53 kg/m3
same,mass density,"[1]; 303.15 K, x1 = 0.8998",975.25 ± 0.55 kg/m3
same,mass density,"[1]; 303.15 K, x1 = 0.9498",985.02 ± 0.57 kg/m3
same,mass density,"[1]; 303.15 K, x1 = 1",994.78 ± 0.59 kg/m3
same,mass density,"[1]; 308.15 K, x1 = 0.05027",807.63 ± 0.33 kg/m3
same,mass density,"[1]; 308.15 K, x1 = 0.1001",817.06 ± 0.34 kg/m3
same,mass density,"[1]; 308.15 K, x1 = 0.1501",826.61 ± 0.35 kg/m3
same,mass density,"[1]; 308.15 K, x1 = 0.3",855.24 ± 0.38 kg/m3
same,mass density,"[1]; 308.15 K, x1 = 0.4004",874.54 ± 0.41 kg/m3
same,mass density,"[1]; 308.15 K, x1 = 0.4994",893.65 ± 0.43 kg/m3
same,mass density,"[1]; 308.15 K, x1 = 0.6002",913.17 ± 0.46 kg/m3
same,mass density,"[1]; 308.15 K, x1 = 0.7001",932.51 ± 0.49 kg/m3
same,mass density,"[1]; 308.15 K, x1 = 0.85",961.69 ± 0.54 kg/m3
same,mass density,"[1]; 308.15 K, x1 = 0.8998",971.41 ± 0.56 kg/m3
same,mass density,"[1]; 308.15 K, x1 = 0.9498",981.19 ± 0.58 kg/m3
same,mass density,"[1]; 308.15 K, x1 = 1",990.97 ± 0.6 kg/m3
"CCC(O)CO (stereo not drawn) [1,2-butanediol]",mass density,[2]; 293.15 K,1002.32 ± 0.57 kg/m3
same,speed of sound,[2]; 298.15 K,1449.9 ± 1.6 m/s
same,mass density,[2]; 298.15 K,998.59 ± 0.58 kg/m3
same,mass density,[2]; 303.15 K,994.78 ± 0.59 kg/m3
same,mass density,[2]; 308.15 K,990.97 ± 0.6 kg/m3
same,refractive index,[3],1.4364 ± 0.0008
same,molar heat capacity at constant pressure,[4]; 283.15 K,222.86 ± 9.5 J/K/mol
same,molar heat capacity at constant pressure,[4]; 288.15 K,225.62 ± 9.6 J/K/mol
same,molar heat capacity at constant pressure,[4]; 293.15 K,228.35 ± 9.7 J/K/mol
same,molar heat capacity at constant pressure,[4]; 298.15 K,231.06 ± 9.8 J/K/mol
same,molar heat capacity at constant pressure,[4]; 303.15 K,233.74 ± 9.9 J/K/mol
same,molar heat capacity at constant pressure,[4]; 308.15 K,236.4 ± 10 J/K/mol
same,molar heat capacity at constant pressure,[4]; 313.15 K,239.05 ± 10 J/K/mol
same,molar heat capacity at constant pressure,[4]; 318.15 K,241.66 ± 10 J/K/mol
CCCCO [butan-1-ol] + CCC(O)CO,mass density,"[1]; 293.15 K, x2 = 0",809.65 ± 0.29 kg/m3
same,speed of sound,"[1]; 298.15 K, x2 = 0",1240.2 ± 1.4 m/s
same,mass density,"[1]; 298.15 K, x2 = 0",805.81 ± 0.3 kg/m3
same,mass density,"[1]; 303.15 K, x2 = 0",801.98 ± 0.31 kg/m3
same,mass density,"[1]; 308.15 K, x2 = 0",798.13 ± 0.32 kg/m3
CCCCO [butan-1-ol],mass density,[2]; 293.15 K,809.65 ± 0.29 kg/m3
same,speed of sound,[2]; 298.15 K,1240.2 ± 1.4 m/s
same,mass density,[2]; 298.15 K,805.81 ± 0.3 kg/m3
same,mass density,[2]; 303.15 K,801.98 ± 0.31 kg/m3
same,mass density,[2]; 308.15 K,798.13 ± 0.32 kg/m3
same,refractive index,[3],1.3972 ± 0.0008
same,molar heat capacity at constant pressure,[4]; 283.15 K,167.32 ± 7.1 J/K/mol
same,molar heat capacity at constant pressure,[4]; 288.15 K,170.35 ± 7.2 J/K/mol
same,molar heat capacity at constant pressure,[4]; 293.15 K,173.54 ± 7.4 J/K/mol
same,molar heat capacity at constant pressure,[4]; 298.15 K,176.9 ± 7.5 J/K/mol
same,molar heat capacity at constant pressure,[4]; 303.15 K,180.41 ± 7.7 J/K/mol
same,molar heat capacity at constant pressure,[4]; 308.15 K,184.09 ± 7.8 J/K/mol
same,molar heat capacity at constant pressure,[4]; 313.15 K,187.93 ± 8 J/K/mol
same,molar heat capacity at constant pressure,[4]; 318.15 K,191.93 ± 8.1 J/K/mol

# Reference: the NIST ThermoML archive (doi:10.1016/j.jct.2013.08.033)
